Test results from article PMC4405350, “From Broad-Spectrum Biocides to Quorum Sensing Disruptors and Mussel Repellents: Antifouling Profile of Alkyl Triphenylphosphonium Salts” (PLoS ONE, 2015).
Read-outs that look alike come from different tables or passages of the source.

Key:
Type in all cases: cell-based
[1] = test system: Cellulophaga lytica CECT 5014; assay: Marine bacteria growth inhibition (broth microdilution, OD625); settings: Cellulophaga lytica, read-out: IC50 C. lytica
Procedure: (§1) All the biological assays were run by triplicate. […] For the active products, serial dilutions were performed to calculate the half-maximal inhibitory concentrations (IC50) or the minimal inhibitory concentrations (MIC). Unless otherwise stated, the test concentrations were 100, 50, 25, 10, 5, 2.5, 1, 0.5 and 0.1 μM. Dose-response curves were adjusted with GraphPad Prism 5 software using a four-parameter non-linear regression model.
(§2) Growth inhibition was assessed in Marine Broth (Conda) according to CLSI guidelines for broth microdilution susceptibility testing. The incubation time was 24 h and the incubation temperature was 30 °C.

Cobetia marina CECT 4278 = assay: as above; settings: Cobetia marina, read-out: IC50 C. marina
Procedure: as §1, §2

[2] = test system: Pseudoalteromonas atlantica CECT 579; assay: as above; settings: Pseudoalteromonas atlantica, read-out: IC50 P. atlantica
Procedure: as §1, §2

[3] = test system: Shewanella algae CECT 5021; assay: as above; settings: Shewanella algae, read-out: IC50 S. algae
Procedure: as §1, §2

[4] = test system: Vibrio alginolyticus CECT 521; assay: as above; settings: Vibrio alginolyticus, read-out: IC50 V. alginolyticus
Procedure: as §1, §2

[5] = test system: Vibrio anguillarum CECT 4347; assay: as above; settings: Vibrio anguillarum, read-out: IC50 V. anguillarum
Procedure: as §1, §2

Amphora sp. = assay: Benthic diatom growth inhibition (chlorophyll-a); settings: 120 h, read-out: IC50 Amphora sp.
Procedure: as §1
(§3) Five strains of benthic diatoms, Nitszchia sp. […] The Nitzschia and Navicula strains were purchased from the Spanish Bank of Algae (Marine Biotechnology Center, University of Las Palmas de Gran Canaria). The other three strains were kindly provided by Dr. G. Courtois (University of Las Palmas de Gran Canaria). Diatoms were cultured at 19±1 °C in Erlenmeyer flaks (250 ml) containing 150 ml of Guillard’s F/2 medium, and subjected to a photoperiod of 18:6. Tests were run in 48-well plates. Inocula were prepared by adjusting diatom concentration to 2–4 × 10^6 cells ml^-1 using a Neubauer chamber. Test products were dissolved in F/2 medium (500 μl) to which diatom inocula (500 μl) were added. Thus, the final assay volume was 1 ml and the starting cell densities were ca. 1–2 x 10^6 diatoms ml^-1. Plates were incubated under the abovementioned conditions for 5 days and then chlorophyll-a (Chla) was quantified.
(§4) In order to extract Chla, the content of each well was transferred to a microcentrifuge tube and centrifuged at 10,000 rpm for 10 min. The supernatants were discarded and 200 μl of DMSO were added to the pellets. The tubes were incubated at 65 °C for 2 h in total darkness and vortexed every 30 min. Then, the content of each tube was transferred to a 96-well plate and the amount of Chla was determined spectrophotometrically. Path length correction factor for the DMSO extracts was determined.

Cylindrotheca sp. = assay: Benthic diatom growth inhibition (chlorophyll-a); settings: 120 h, read-out: IC50 Cylindrotheca sp.
Procedure: as §1, §3, §4

[6] = test system: Navicula cf. salinicola BEA 0055; assay: Benthic diatom growth inhibition (chlorophyll-a); settings: 120 h, read-out: IC50 Navicula cf. salinicola
Procedure: as §1, §3, §4

Nitzschia sp. = assay: Benthic diatom growth inhibition (chlorophyll-a); settings: 120 h, read-out: IC50 Nitzschia sp.
Procedure: as §1, §3, §4

[7] = test system: Phaeodactylum tricornutum; assay: Benthic diatom growth inhibition (chlorophyll-a); settings: Phaeodactylum tricornutum, 120 h, read-out: IC50 P. tricornutum
Procedure: as §1, §3, §4

[8] = CECT5014, growth inhibition, 24 h, 30 °C, three replicates
[9] = CECT4278, growth inhibition, 24 h, 30 °C, three replicates
[10] = CECT579, growth inhibition, 24 h, 30 °C, three replicates
[11] = CECT5021, growth inhibition, 24 h, 30 °C, three replicates
[12] = CECT521, growth inhibition, 24 h, 30 °C, three replicates
[13] = CECT4347, growth inhibition, 24 h, 30 °C, three replicates

BrC(Br)[P+](c1ccccc1)(c1ccccc1)c1ccccc1 [Compound 1]
IC50 [1, 8]: > 100 µM
IC50 (Cobetia marina CECT 4278; [9]): > 100 µM
IC50 [2, 10]: > 100 µM
IC50 [3, 11]: > 100 µM
IC50 [4, 12]: > 100 µM
IC50 [5, 13]: > 100 µM
IC50 (Amphora sp.; growth, 5 days, chlorophyll-a): 19.5 µM
IC50 (Cylindrotheca sp.; growth, 5 days, chlorophyll-a): 9.8 µM
IC50 ([6]; growth, 5 days, chlorophyll-a): 10.6 µM
IC50 (Nitzschia sp.; growth, 5 days, chlorophyll-a): 18.7 µM
IC50 ([7]; growth, 5 days, chlorophyll-a): 16.8 µM

COC(=O)CCC[P+](c1ccccc1)(c1ccccc1)c1ccccc1 [Compound 2]
IC50 [1, 8]: > 100 µM
IC50 (Cobetia marina CECT 4278; [9]): > 100 µM
IC50 [2, 10]: > 100 µM
IC50 [3, 11]: > 100 µM
IC50 [4, 12]: > 100 µM
IC50 [5, 13]: > 100 µM
IC50 (Amphora sp.; growth, 5 days, chlorophyll-a): 43.4 µM
IC50 (Cylindrotheca sp.; growth, 5 days, chlorophyll-a): 23.7 µM
IC50 ([6]; growth, 5 days, chlorophyll-a): 50.2 µM
IC50 (Nitzschia sp.; growth, 5 days, chlorophyll-a): 40.2 µM
IC50 ([7]; growth, 5 days, chlorophyll-a): > 100 µM

O=S(=O)([O-])CCCC[P+](c1ccccc1)(c1ccccc1)c1ccccc1 [Compound 6]
IC50 [1, 8]: > 100 µM
IC50 (Cobetia marina CECT 4278; [9]): > 100 µM
IC50 [2, 10]: > 100 µM
IC50 [3, 11]: > 100 µM
IC50 [4, 12]: > 100 µM
IC50 [5, 13]: > 100 µM
IC50 (Amphora sp.; growth, 5 days, chlorophyll-a): > 100 µM
IC50 (Cylindrotheca sp.; growth, 5 days, chlorophyll-a): 21.3 µM
IC50 ([6]; growth, 5 days, chlorophyll-a): > 100 µM
IC50 (Nitzschia sp.; growth, 5 days, chlorophyll-a): > 100 µM
IC50 ([7]; growth, 5 days, chlorophyll-a): > 100 µM

CCCCCCC[P+](c1ccccc1)(c1ccccc1)c1ccccc1 [Compound 8, heptyl triphenylphosphonium bromide]
IC50 [1, 8]: 20 µM
IC50 (Cobetia marina CECT 4278; [9]): > 100 µM
IC50 [2, 10]: 28.6 µM
IC50 [3, 11]: > 100 µM
IC50 [4, 12]: > 100 µM
IC50 [5, 13]: > 100 µM
IC50 (Amphora sp.; growth, 5 days, chlorophyll-a): 37.6 µM
IC50 (Cylindrotheca sp.; growth, 5 days, chlorophyll-a): 10.6 µM
IC50 ([6]; growth, 5 days, chlorophyll-a): 6.4 µM
IC50 (Nitzschia sp.; growth, 5 days, chlorophyll-a): 20.8 µM
IC50 ([7]; growth, 5 days, chlorophyll-a): 92.2 µM

CCCCCCCCC[P+](c1ccccc1)(c1ccccc1)c1ccccc1 [Compound 9]
IC50 [1, 8]: 2.6 µM
IC50 (Cobetia marina CECT 4278; [9]): 21 µM
IC50 [2, 10]: 6.6 µM
IC50 [3, 11]: 8.6 µM
IC50 [4, 12]: 69.7 µM
IC50 [5, 13]: 87 µM
IC50 (Amphora sp.; growth, 5 days, chlorophyll-a): 6.2 µM
IC50 (Cylindrotheca sp.; growth, 5 days, chlorophyll-a): 1.9 µM
IC50 ([6]; growth, 5 days, chlorophyll-a): 2.7 µM
IC50 (Nitzschia sp.; growth, 5 days, chlorophyll-a): 3.6 µM
IC50 ([7]; growth, 5 days, chlorophyll-a): 11.2 µM

CCCCCCCCCC[P+](c1ccccc1)(c1ccccc1)c1ccccc1 [Compound 10]
IC50 [1, 8]: 2.6 µM
IC50 (Cobetia marina CECT 4278; [9]): 8 µM
IC50 [2, 10]: 5.2 µM
IC50 [3, 11]: 10.4 µM
IC50 [4, 12]: 35.5 µM
IC50 [5, 13]: 18.3 µM
IC50 (Amphora sp.; growth, 5 days, chlorophyll-a): 3.2 µM
IC50 (Cylindrotheca sp.; growth, 5 days, chlorophyll-a): 1 µM
IC50 ([6]; growth, 5 days, chlorophyll-a): 2.3 µM
IC50 (Nitzschia sp.; growth, 5 days, chlorophyll-a): 2.5 µM
IC50 ([7]; growth, 5 days, chlorophyll-a): 1.9 µM

CCCCCCCCCCC[P+](c1ccccc1)(c1ccccc1)c1ccccc1 [Compound 11]
IC50 [1, 8]: 1.1 µM
IC50 (Cobetia marina CECT 4278; [9]): 6.1 µM
IC50 [2, 10]: 3 µM
IC50 [3, 11]: 5.4 µM
IC50 [4, 12]: 32.9 µM
IC50 [5, 13]: 17 µM
IC50 (Amphora sp.; growth, 5 days, chlorophyll-a): 3.3 µM
IC50 (Cylindrotheca sp.; growth, 5 days, chlorophyll-a): 1 µM
IC50 ([6]; growth, 5 days, chlorophyll-a): 1.5 µM
IC50 (Nitzschia sp.; growth, 5 days, chlorophyll-a): 2.3 µM
IC50 ([7]; growth, 5 days, chlorophyll-a): 1.7 µM

CCCCCCCCCCCC[P+](c1ccccc1)(c1ccccc1)c1ccccc1 [Compound 12]
IC50 ([1]; CECT5014, 24 h): 1.7 µM
IC50 (Cobetia marina CECT 4278; CECT4278, 24 h): 5.1 µM
IC50 ([2]; CECT579, 24 h): 1.1 µM
IC50 ([3]; CECT5021, 24 h): 3 µM
IC50 ([4]; CECT521, 24 h): 26.3 µM
IC50 ([5]; CECT4347, 24 h): 27.5 µM
IC50 (Amphora sp.): 4.8 µM
IC50 (Cylindrotheca sp.): 1 µM
IC50 [6]: 1.3 µM
IC50 (Nitzschia sp.): 2.2 µM
IC50 [7]: 1.2 µM

CCCCCCCCCCCCC[P+](c1ccccc1)(c1ccccc1)c1ccccc1 [Compound 13]
IC50 [1, 8]: 1.7 µM
IC50 (Cobetia marina CECT 4278; [9]): 5 µM
IC50 [2, 10]: 1.2 µM
IC50 [3, 11]: 3.6 µM
IC50 [4, 12]: 11.3 µM
IC50 [5, 13]: 5.7 µM
IC50 (Amphora sp.; growth, 5 days, chlorophyll-a): 4.5 µM
IC50 (Cylindrotheca sp.; growth, 5 days, chlorophyll-a): 1.7 µM
IC50 ([6]; growth, 5 days, chlorophyll-a): 1.8 µM
IC50 (Nitzschia sp.; growth, 5 days, chlorophyll-a): 2.2 µM
IC50 ([7]; growth, 5 days, chlorophyll-a): 1 µM

CCCCCCCCCCCCCC[P+](c1ccccc1)(c1ccccc1)c1ccccc1 [Compound 14]
IC50 [1, 8]: 2 µM
IC50 (Cobetia marina CECT 4278; [9]): 5.3 µM
IC50 [2, 10]: 2.3 µM
IC50 [3, 11]: 1.2 µM
IC50 [4, 12]: 12.7 µM
IC50 [5, 13]: 1.6 µM
IC50 (Amphora sp.; growth, 5 days, chlorophyll-a): 2.1 µM
IC50 (Cylindrotheca sp.; growth, 5 days, chlorophyll-a): 4.5 µM
IC50 ([6]; growth, 5 days, chlorophyll-a): 1.2 µM
IC50 (Nitzschia sp.; growth, 5 days, chlorophyll-a): 3.5 µM
IC50 ([7]; growth, 5 days, chlorophyll-a): 1.5 µM

CCCCCCCCCCCCCCC[P+](c1ccccc1)(c1ccccc1)c1ccccc1 [Compound 15]
IC50 [1, 8]: 1.9 µM
IC50 (Cobetia marina CECT 4278; [9]): 5.5 µM
IC50 [2, 10]: 2.9 µM
IC50 [3, 11]: 3.8 µM
IC50 [4, 12]: 5.6 µM
IC50 [5, 13]: 2.7 µM
IC50 (Amphora sp.; growth, 5 days, chlorophyll-a): 3.1 µM
IC50 (Cylindrotheca sp.; growth, 5 days, chlorophyll-a): 2.2 µM
IC50 ([6]; growth, 5 days, chlorophyll-a): 2.8 µM
IC50 (Nitzschia sp.; growth, 5 days, chlorophyll-a): 3.6 µM
IC50 ([7]; growth, 5 days, chlorophyll-a): 1.1 µM

CCCCCCCCCCCCCCCC[P+](c1ccccc1)(c1ccccc1)c1ccccc1 [Compound 16]
IC50 [1, 8]: 1.5 µM
IC50 (Cobetia marina CECT 4278; [9]): 9.9 µM
IC50 [2, 10]: 6.8 µM
IC50 [3, 11]: 5.4 µM
IC50 [4, 12]: 16.9 µM
IC50 [5, 13]: 5.3 µM
IC50 (Amphora sp.; growth, 5 days, chlorophyll-a): 2.6 µM
IC50 (Cylindrotheca sp.; growth, 5 days, chlorophyll-a): 4.7 µM
IC50 ([6]; growth, 5 days, chlorophyll-a): 1.3 µM
IC50 (Nitzschia sp.; growth, 5 days, chlorophyll-a): 4.9 µM
IC50 ([7]; growth, 5 days, chlorophyll-a): 1.3 µM

O=C(O)CCCCCCCCCC[P+](c1ccccc1)(c1ccccc1)c1ccccc1 [Compound 19]
IC50 [1, 8]: > 100 µM
IC50 (Cobetia marina CECT 4278; [9]): > 100 µM
IC50 [2, 10]: > 100 µM
IC50 [3, 11]: > 100 µM
IC50 [4, 12]: > 100 µM
IC50 [5, 13]: > 100 µM
IC50 (Amphora sp.; growth, 5 days, chlorophyll-a): 75.5 µM
IC50 (Cylindrotheca sp.; growth, 5 days, chlorophyll-a): 24.1 µM
IC50 ([6]; growth, 5 days, chlorophyll-a): > 100 µM
IC50 (Nitzschia sp.; growth, 5 days, chlorophyll-a): > 100 µM
IC50 ([7]; growth, 5 days, chlorophyll-a): > 100 µM

c1ccc([P+](CCCCCCCCCCCC[P+](c2ccccc2)(c2ccccc2)c2ccccc2)(c2ccccc2)c2ccccc2)cc1 [Compound 20]
IC50 [1, 8]: 1.1 µM
IC50 (Cobetia marina CECT 4278; [9]): 7.3 µM
IC50 [2, 10]: 0.8 µM
IC50 [3, 11]: 2.2 µM
IC50 [4, 12]: 93.5 µM
IC50 [5, 13]: 8 µM
IC50 (Amphora sp.; growth, 5 days, chlorophyll-a): 1.6 µM
IC50 (Cylindrotheca sp.; growth, 5 days, chlorophyll-a): 1.3 µM
IC50 ([6]; growth, 5 days, chlorophyll-a): 0.6 µM
IC50 (Nitzschia sp.; growth, 5 days, chlorophyll-a): 2 µM
IC50 ([7]; growth, 5 days, chlorophyll-a): 1 µM
